The record followed here is patent US20240041042A1, “1-(PYRIDYL)-5-AZINYLPYRAZOLE DERIVATIVES, AND THEIR USE FOR CONTROL OF UNDESIRED PLANT GROWTH” (Bayer Aktiengesellschaft, priority 2020, published 2024).

Type in all cases: in vivo
For one experiment, the system named is Avena fatua (AVEFA). The experiment is described as follows: Pre-emergence herbicidal action against AVEFA. As to conditions: visual scoring after about 3 weeks vs untreated controls. The essentials: (§1)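 Greenhouse pot trial: seeds sown, soil-covered, sprayed before emergence with compound in water (0.5% additive; 600 l/ha; ≤320 g/ha). Scoring visual, ~3 weeks, 0–100% scale vs untreated.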

For the next experiment, the system named is Lolium rigidum (LOLRI). The experiment can be described thus: Pre-emergence herbicidal action against LOLRI. The essentials:
as §1

Experiment [1] concerns Matricaria inodora (MATIN). The experiment can be described thus: Pre-emergence herbicidal action against MATIN. The method, boiled down: as §1
Experiment [2] deals with Pharbitis purpurea (PHBPU). The experiment can be described thus: Pre-emergence herbicidal action against PHBPU. The method, boiled down:
as §1

For experiment [3], the system named is Polygonum convolvulus (POLCO). The experiment is described as follows: Pre-emergence herbicidal action against POLCO. The method, boiled down: as §1
Experiment [4] relates to Verconica persica (VERPE). The experiment can be described thus: Pre-emergence herbicidal action against VERPE. The method, boiled down:
as §1

Experiment [5] deals with Polygonum convolvulus (POLCO). The experiment is described as follows: Post-emergence herbicidal action against POLCO. The method, boiled down: (§2)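 Rates were 320 g/ha or below, applied as aqueous WP/EC spray with 0.5% additive (600 l/ha) onto one-leaf-stage plants. About 3 weeks later in the greenhouse, damage was scored visually against untreated plants on a 0–100% scale, where 100% means plants died.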

The next experiment relates to Setaria viridis (SETVI). The experiment is described as follows: Post-emergence herbicidal action against SETVI. The method, boiled down: as §2
Experiment [6] has as its system Verconica persica (VERPE). The experiment is described as follows: Post-emergence herbicidal action against VERPE. The method, boiled down:
as §2

The next experiment relates to Viola tricolor (VIOTR). The experiment is described as follows: Post-emergence herbicidal action against VIOTR. The essentials:
as §2

On to `CCOC(=O)[C@@H](C)Oc1nn(-c2ncccc2F)c(-c2ccc(F)nc2)c1C1CC1` [Example I-375], for which the “Pre-emergence action against AVEFA in %” value is on record as 90% with Avena fatua (AVEFA) (80 g/ha) and 100% with Avena fatua (AVEFA) (320 g/ha). Also, the “Pre-emergence action against LOLRI in %” value in the experiment with Lolium rigidum (LOLRI) (dosage 80 g/ha) and with Lolium rigidum (LOLRI) (dosage 320 g/ha) was 100% each time. Moreover, the “Pre-emergence action against MATIN in %” value in experiment [1] (dosage 80 g/ha) and in experiment [1] (dosage 320 g/ha) was 100% in each case. The “Pre-emergence action against PHBPU in %” value in [2] (dosage 80 g/ha) is reported as 80%; in experiment [2] (dosage 320 g/ha), 90%. For the same molecule, the “Pre-emergence action against POLCO in %” value in experiment [3] (dosage 80 g/ha) and in experiment [3] (dosage 320 g/ha) was 90% in each case. Further, the “Pre-emergence action against VERPE in %” value in experiment [4] (dosage 80 g/ha) and in [4] (dosage 320 g/ha) was 100% each time. The “Post-emergence action against POLCO in %” value is on record as 80% in experiment [5] (dosage 80 g/ha) and 90% in experiment [5] (dosage 320 g/ha). Also, the “Post-emergence action against SETVI in %” value in the experiment with Setaria viridis (SETVI) (dosage 80 g/ha) and in the experiment with Setaria viridis (SETVI) (dosage 320 g/ha) was 90% in each case. Also, the “Post-emergence action against VERPE in %” value in [6] (320 g/ha, VERPE) turned out to be 90%; in experiment [6] (dosage 80 g/ha), 80%. Besides, the figures for the “Post-emergence action against VIOTR in %” value in the experiment with Viola tricolor (VIOTR) (80 g/ha) and in the experiment with Viola tricolor (VIOTR) (320 g/ha) were 80% and 90%, respectively.
On to `COC(=O)CCOC(=O)[C@@H](C)Oc1nn(-c2ccccn2)c(-c2cncc(F)c2)c1Cl` [Example I-196], for which the figures for the “Pre-emergence action against AVEFA in %” value in the experiment with Avena fatua (AVEFA) (80 g/ha) and in the experiment with Avena fatua (AVEFA) (320 g/ha) were 80% and 90%, respectively. In addition, the “Pre-emergence action against LOLRI in %” value with Lolium rigidum (LOLRI) (dosage 80 g/ha) and with Lolium rigidum (LOLRI) (dosage 320 g/ha) was 100% each time. For the same molecule, the “Pre-emergence action against MATIN in %” value in experiment [1] (dosage 80 g/ha) and in experiment [1] (dosage 320 g/ha) was 90% throughout. In addition, the “Pre-emergence action against PHBPU in %” value in [2] (dosage 80 g/ha) and in experiment [2] (dosage 320 g/ha) was 90% each time. Further, the “Pre-emergence action against POLCO in %” value in [3] (dosage 80 g/ha) and in [3] (dosage 320 g/ha) was 90% each time. Further, the “Pre-emergence action against VERPE in %” value in [4] (dosage 80 g/ha) is reported as 90%; in experiment [4] (dosage 320 g/ha), 100%. Further, the “Post-emergence action against POLCO in %” value in [5] (dosage 80 g/ha) and in [5] (dosage 320 g/ha) was 80% each time. The “Post-emergence action against SETVI in %” value with Setaria viridis (SETVI) (dosage 80 g/ha) and in the experiment on Setaria viridis (SETVI) (dosage 320 g/ha) was 80% throughout. Further, the “Post-emergence action against VERPE in %” value in experiment [6] (320 g/ha, VERPE) is on record as 90%; in [6] (dosage 80 g/ha), 80%. Also, the “Post-emergence action against VIOTR in %” value in the experiment with Viola tricolor (VIOTR) (80 g/ha) and with Viola tricolor (VIOTR) (320 g/ha) was 80% in each case.
Consider `COC(=O)C(C)COC(=O)[C@@H](C)Oc1nn(-c2ccccn2)c(-c2cncc(F)c2)c1Br` (some centres unmarked) [Example I-188], for which the “Pre-emergence action against AVEFA in %” value amounted to 80% in the experiment with Avena fatua (AVEFA) (80 g/ha) and 90% with Avena fatua (AVEFA) (320 g/ha). Also, the “Pre-emergence action against LOLRI in %” value with Lolium rigidum (LOLRI) (dosage 80 g/ha) and in the experiment with Lolium rigidum (LOLRI) (dosage 320 g/ha) was 100% each time. In addition, the “Pre-emergence action against MATIN in %” value in [1] (dosage 80 g/ha) and in experiment [1] (dosage 320 g/ha) was 90% throughout. Also, the “Pre-emergence action against PHBPU in %” value in [2] (dosage 80 g/ha) was determined as 80%; in experiment [2] (dosage 320 g/ha) it was 90%. For the same molecule, the “Pre-emergence action against POLCO in %” value in [3] (dosage 80 g/ha) and in experiment [3] (dosage 320 g/ha) was 90% each time. For the same molecule, the “Pre-emergence action against VERPE in %” value in experiment [4] (dosage 80 g/ha) and in [4] (dosage 320 g/ha) was 100% throughout. In addition, the “Post-emergence action against POLCO in %” value in [5] (dosage 80 g/ha) and in experiment [5] (dosage 320 g/ha) was 80% throughout. The “Post-emergence action against SETVI in %” value in the experiment with Setaria viridis (SETVI) (dosage 80 g/ha) and in the experiment with Setaria viridis (SETVI) (dosage 320 g/ha) was 80% in each case. For the same molecule, the “Post-emergence action against VERPE in %” value in experiment [6] (320 g/ha, VERPE) was determined as 90%; in [6] (dosage 80 g/ha), 80%. Besides, the “Post-emergence action against VIOTR in %” value in the experiment on Viola tricolor (VIOTR) (80 g/ha) and in the experiment on Viola tricolor (VIOTR) (320 g/ha) was 80% throughout.
As to `CCOC(=O)COc1nn(-c2ccccn2)c(-c2ccc(F)nc2)c1Cl` [Example I-85], the “Pre-emergence action against AVEFA in %” value in the experiment with Avena fatua (AVEFA) (320 g/ha) came out at 90%. Moreover, the “Pre-emergence action against LOLRI in %” value in the experiment on Lolium rigidum (LOLRI) (dosage 320 g/ha) came out at 100%. Moreover, the “Pre-emergence action against MATIN in %” value in experiment [1] (dosage 80 g/ha) and in [1] (dosage 320 g/ha) was 100% each time. Further, the figures for the “Pre-emergence action against PHBPU in %” value in experiment [2] (dosage 80 g/ha) and in experiment [2] (dosage 320 g/ha) were 90% and 100%, respectively. For the same molecule, the “Pre-emergence action against POLCO in %” value in experiment [3] (dosage 320 g/ha) is 100%. The “Pre-emergence action against VERPE in %” value in experiment [4] (dosage 80 g/ha) and in experiment [4] (dosage 320 g/ha) was 100% each time. The “Post-emergence action against POLCO in %” value in experiment [5] (dosage 80 g/ha) and in [5] (dosage 320 g/ha) was 90% each time. Moreover, the “Post-emergence action against SETVI in %” value in the experiment with Setaria viridis (SETVI) (dosage 80 g/ha) was 90%; in the experiment on Setaria viridis (SETVI) (dosage 320 g/ha), 100%. Moreover, the “Post-emergence action against VERPE in %” value in experiment [6] (320 g/ha, VERPE) worked out at 90%; in experiment [6] (dosage 80 g/ha) it was 90%. The “Post-emergence action against VIOTR in %” value with Viola tricolor (VIOTR) (80 g/ha) and in the experiment on Viola tricolor (VIOTR) (320 g/ha) was 100% throughout.
